From patent publication EP1893207B1, “USE OF SUBSTITUTED PIPERAZINE DERIVATIVES AND MORPHOLINE DERIVATIVES” (Merck Patent GmbH, priority 2005, dated 2006)

Assays:
[1] = molecular target: Pilz-tyrosinase; test: Tyrosinase assay (inhibition of the enzyme tyrosinase, L-DOPA substrate, optical density at 450 nm); type: biochemical; conditions: Tyrosinase 10 U, L-DOPA 4 mM, 1 h 37°C
Method: Die Wirkung der Verbindungen nach Formeln Ia bis IIp als Hautaufheller wird geprüft durch ihre Fähigkeit das Enzym Tyrosinase zu hemmen und damit die Melanin-Synthese zu unterbinden. Um die hemmende Wirkung der Verbindungen der Formeln Ia bis IIp gegenüber Tyrosinase zu zeigen wurden als Substrate Pilz-tyrosinase und L-Tyrosin oder L-DOPA verwendet und mit der Referenz-Verbindung verglichen.
Die Verbindungen Ia bis IIp und Tyrosinase (10 U) werden 10 Min. in Eis vorgekühlt und L-DOPA (4 mM) zugefügt und für 1 h auf 37°C gehalten. Es wird die optische Dichte jedes experimentell ermittelten Punktes bei 450 nm gegenüber der entsprechenden Referenz ohne Enzym gemessen. Kojicsäure wird als Tyrosinase-Referenz-Inhibitor benutzt. Die Versuchsergebnisse sind in der folgenden Tabelle 1 dargestellt, ausgedrückt durch den IC 50-Wert (d.h. die Konzentration der jeweiligen Versuchssubstanz bei der die Tyrosinase-Aktivität um 50% blockiert ist). Tab. 1 Tyrosinase-Versuchsergebnisse

[2] = test system: normale menschliche Melanocyten; test: Melanin assay (melanin content of human melanocyte cultures, optical density at 405 nm); type: cell-based; conditions: 240 h incubation; for % Kontrolle normiert*: melanin content normalised; for % Kontrolle: melanin content
Text: Das Potential der Verbindungen nach Formeln Ia bis IIp als Hautaufheller-Wirkstoff wurde außerdem durch den Melanin-Versuch verifiziert. Der Effekt in Bezug auf den Melanin-Gehalt von menschlichen epidermalen Melanocyten-Kulturen dieser Verbindungen wurde ermittelt und mit der Referenzverbindung (Kojicsäure) verglichen.
Eine vorausgehende Cytotoxizitäts-Studie der Verbindungen nach Formeln Ia bis IIp wurde durchgeführt um drei nicht-cytotoxische Konzentrationen für den Melanin-Versuch zu ermitteln.
Melanin-Versuch: normale menschliche Melanocyten wurden in 24 Lochplatten (110.000 Zellen/Loch) kultiviert. Bei 50 % Zusammenfluss wurde das Kulturmedium mit oder ohne (Kontrollverbindung) Verbindungen der Formeln Ia bis IIp durch frisches Kulturmedium in drei verschiedenen Konzentrationen ersetzt.
Nach der Inkubation (240 Stunden) wurden die Monolayers gewaschen, die Zellen lysiert und das Melanin extrahiert. Es wurde die optische Dichte jedes experimentellen Punktes bei 405 nm gegen den Melanin-Standard gemessen. Tabelle 2 zeigt die Ergebnisse zwei ausgewählter Verbindungen im Vergleich zur Kojicsäure und der Kontrollverbindung (mit 100% Melaningehalt), wobei der ermittelte Melaningehalt (in %) bei jeweils drei verschiedenen Konzentrationen angegeben ist. Tab. 2 Melanin-Versuchsergebnisse

For `Oc1ccc(CN2CCOCC2)c(O)c1` [Ih, 4-Morpholin-1-ylmethyl-benzen-1,3-diol], the IC50 [1] was 78 µM, the Melanin ([2]; Konzent. 1.6 µg/mL) was 37.2 µg/mL and the “Melanin normiert*” value ([2]; Konzent. 1.6 µg/mL) was 37.0 µglmL. The Melanin ([2]; Konzent. 8 µg/mL) was 35.3 µg/mL, the “Melanin normiert*” value ([2]; Konzent. 8 µg/mL) was 32.1 µglmL and the Melanin ([2]; Konzent. 40 µg/mL) was 30.6 µg/mL. For the same compound, the “Melanin normiert*” value ([2]; Konzent. 40 µg/mL) was 30.4 µglmL, the “% Kontrolle normiert*” value ([2]; Konzent. 1.6 µg/mL) was 99% and the “% Kontrolle normiert*” value ([2]; Konzent. 8 µg/mL) was 86%. The “% Kontrolle normiert*” value ([2]; Konzent. 40 µg/mL) was 82%, the “% Kontrolle” value ([2]; Konzent. 1.6 µg/mL) was 100% and the “% Kontrolle” value ([2]; Konzent. 8 µg/mL) was 95%. For the same compound, the “% Kontrolle” value ([2]; Konzent. 40 µg/mL) was 82%.

Compound `c1cncc(CN2CCNCC2)c1` [IIo, 1-Pyridin-3-ylmethyl-piperazin] has an IC50 [1] of 360 µM.

In the case of `c1ccc(CN2CCN(Cc3ccc4c(c3)OCO4)CC2)cc1` [Ij, 1-Benzo[1,3]dioxol-5-ylmethyl-4-benzyl-piperazin], the IC50 [1] is reported as 153 µM.

`COc1ccc(CN2CCN(Cc3ccccc3)CC2)c(OC)c1` [Ii, 1-Benzyl-4-(2,4-dimethoxy-benzyl)-piperazin] was tested, and the IC50 [1] was over 1000 µM.

`Oc1cc(O)cc(CN2CCN(Cc3ccccc3)CC2)c1` [Id, 5-(4-Benzyl-piperazin-1-ylmethyl)-benzen-1,3-diol] showed an IC50 [1] of over 1000 µM.

For `CC(C)(C)OC(=O)N1CCN(Cc2ccc(O)cc2O)CC1` [If, 4-(4-tert-Butoxycarbinyl-piperazin-1-ylmethyl)-benzen-1,3-diol], the IC50 [1] was 140 µM.

With `c1cc(CN2CCNCC2)ccn1` [IIn, 1-Pydridin-4-ylmethyl-piperazin] the IC50 [1] was 280 µM.

In the case of `Oc1ccc(CN2CCN(Cc3ccccc3)CC2)c(O)c1` [Ib, 4-(4-Benzyl-piperazin-1-ylmethyl)-benzen-1,3-diol], the IC50 [1] is reported as 154 µM, the Melanin ([2]; Konzent. 0.8 µg/mL) is reported as 37.8 µg/mL and the “Melanin normiert*” value ([2]; Konzent. 0.8 µg/mL) is reported as 37.1 µglmL. The Melanin ([2]; Konzent. 4 µg/mL) was 37.1 µg/mL, the “Melanin normiert*” value ([2]; Konzent. 4 µg/mL) was 34.8 µglmL and the “% Kontrolle normiert*” value ([2]; Konzent. 0.8 µg/mL) was 100%. The “% Kontrolle normiert*” value ([2]; Konzent. 4 µg/mL) was 94%, the “% Kontrolle” value ([2]; Konzent. 0.8 µg/mL) was 102% and the “% Kontrolle” value ([2]; Konzent. 4 µg/mL) was 100%.

For `O=c1cc(CO)occ1O` [Kojicsäure, reference compound], the IC50 [1] was 12 µM, the Melanin ([2]; Konzent. 6.8 µg/mL) was 34.4 µg/mL and the “Melanin normiert*” value ([2]; Konzent. 6.8 µg/mL) was 38.0 µglmL. The Melanin ([2]; Konzent. 15.6 µg/mL) was 30 µg/mL, the “Melanin normiert*” value ([2]; Konzent. 15.6 µg/mL) was 34.6 µglmL and the Melanin ([2]; Konzent. 36 µg/mL) was 23.8 µg/mL. For the same compound, the “Melanin normiert*” value ([2]; Konzent. 36 µg/mL) was 31.7 µglmL, the “% Kontrolle normiert*” value ([2]; Konzent. 6.8 µg/mL) was 101% and the “% Kontrolle normiert*” value ([2]; Konzent. 15.6 µg/mL) was 92%. The “% Kontrolle normiert*” value ([2]; Konzent. 36 µg/mL) was 85%, the “% Kontrolle” value ([2]; Konzent. 6.8 µg/mL) was 92% and the “% Kontrolle” value ([2]; Konzent. 15.6 µg/mL) was 80%. For the same compound, the “% Kontrolle” value ([2]; Konzent. 36 µg/mL) was 64%.

With `c1ccc(CN2CCNCC2)nc1` [IIp, 1-Pyridin-2-ylmethyl-piperazin] the IC50 [1] was 553 µM.

For `CCN1CCN(Cc2ccc(O)cc2O)CC1` [Ie, 4-(4-Ethyl-piperazin-1-ylmethyl)-benzen-1,3-diol], the IC50 [1] was 263 µM, the Melanin ([2]; Konzent. 0.8 µg/mL) was 37.3 µg/mL and the “Melanin normiert*” value ([2]; Konzent. 0.8 µg/mL) was 36.5 µglmL. The Melanin ([2]; Konzent. 4 µg/mL) was 37.5 µg/mL, the “Melanin normiert*” value ([2]; Konzent. 4 µg/mL) was 36.0 µglmL and the Melanin ([2]; Konzent. 20 µg/mL) was 33.8 µg/mL. For the same compound, the “Melanin normiert*” value ([2]; Konzent. 20 µg/mL) was 32.9 µglmL, the “% Kontrolle normiert*” value ([2]; Konzent. 0.8 µg/mL) was 98% and the “% Kontrolle normiert*” value ([2]; Konzent. 4 µg/mL) was 97%. For the same compound, the “% Kontrolle normiert*” value ([2]; Konzent. 20 µg/mL) was 88%, the “% Kontrolle” value ([2]; Konzent. 0.8 µg/mL) was 100% and the “% Kontrolle” value ([2]; Konzent. 4 µg/mL) was 101%. The “% Kontrolle” value ([2]; Konzent. 20 µg/mL) was 91%.

`c1ccc(CN2CCN(Cc3ccccn3)CC2)cc1` [IIk, 1-Benzyl-4-pyridin-2-ylmethyl-piperazin] showed an IC50 [1] of over 1000 µM.

For `Oc1cccc(CN2CCN(Cc3ccccc3)CC2)c1O` [Ia, 3-(4-Benzyl-piperazin-1-ylmethyl)-benzen-1,2-diol], the IC50 [1] was 134 µM, the Melanin ([2]; Konzent. 0.8 µg/mL) was 38.6 µg/mL and the “Melanin normiert*” value ([2]; Konzent. 0.8 µg/mL) was 36.4 µglmL. For the same compound, the “% Kontrolle normiert*” value ([2]; Konzent. 0.8 µg/mL) was 98% and the “% Kontrolle” value ([2]; Konzent. 0.8 µg/mL) was 104%.
